Experiments:
[1] = system: primary human fibroblasts derived from IPF patients (LL29 cells); assay: Inhibition of the fibrotic process: αSMA staining in TGF-β1 treated LL29 fibroblasts; format: cell-based; details: Homo sapiens, Fibroblast; for EC50: 96 h, TGF-β1 20 ng/mL, 4 days, % αSMA positive cells; for inhibition at 10 µM: given for EC50 of >10 μM, TGF-β1, αSMA, read-out: percent inhibition at 10 μM
Procedure, shortened: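 IPF patient-derived LL29 fibroblasts in 1% FBS medium got compound (11-point, 10 μM to 1.87 nM, 0.1% DMSO) plus TGF-β1 20 ng/mL, 4 days at 37° C. αSMA-positive live cells (SYTOX-excluded) were imaged, normalized to TGF-β1 controls and fitted for EC50; % inhibition at 10 μM given when EC50 >10 μM.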

[2] = system: Wnt activity (Sp5-Luc reporter gene, SW480 colon carcinoma cells); assay: Screening assay for Wnt activity: Sp5-Luc reporter gene assay in SW480 cells; format: cell-based, human; details: Homo sapiens; for EC50: overnight incubation; for inhibition at 10 µM: given for EC50 of >10 μM, read-out: percent inhibition at 10 μM
Procedure, shortened: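 SW480 cells stably transduced with a luciferase reporter driven by an Sp5 promoter of eight TCF/LEF sites were plated at 4,000 cells/well in 1% FBS medium. They were exposed overnight at 37° C to a 10-point 1:3 dilution series from 10 μM (0.1% DMSO). Luminescence was normalized to DMSO for four-parameter EC50, or percent inhibition at 10 μM.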

[3] = system: SW480 colon cancer cells; assay: Cell viability assay (CellTiter-Blue) in SW480 colon cancer cells; format: cell-based, human; details: Homo sapiens; for EC50: 96 h, four days, CellTiter-Blue; for inhibition at 10 µM: given for EC50 of >10 μM, read-out: percent inhibition at 10 μM
Procedure, shortened: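 Four-day viability readout in SW480 cells: compound at 0.0045–10 μM (1:3 series), DMSO controls in eight replicates, CellTiter-Blue fluorescence after ~3 h. Values are regression-derived EC50s, or percent inhibition at 10 μM when EC50 exceeds 10 μM.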

EC50 [2] | EC50 [3] | SMILES | EC50 [1] | inhibition at 10 µM [1] | inhibition at 10 µM [3] | inhibition at 10 µM [2]
0.714 µM | 1.44 µM | c1ccc(COc2cncc(-c3cnc4[nH]nc(-c5cc6ncccc6[nH]5)c4c3)c2)cc1 [Compound 1006, 5-(5-(Benzyloxy)pyridin-3-yl)-3-(1H-pyrrolo[3,2-b]pyridin-2-yl)-1H-pyrazolo[3,4-b]pyridine] | > 10 µM | 24.8% | – | –
0.39 µM | 0.701 µM | O=C(Nc1cncc(-c2cnc3[nH]nc(-c4cc5c(-c6ccccn6)cccc5[nH]4)c3c2)c1)c1ccccc1 [Compound 128, N-(5-(3-(4-(Pyridin-2-yl)-1H-indol-2-yl)-1H-pyrazolo[3,4-b]pyridin-5-yl)pyridin-3-yl)benzamide] | 0.468 µM | – | – | –
4.53 µM | 1.19 µM | c1ccc(-c2cccc3[nH]c(-c4n[nH]c5ncc(-c6cncc(CN7CCCC7)c6)cc45)cc23)nc1 [Compound 131, 3-(4-(Pyridin-2-yl)-1H-indol-2-yl)-5-(5-(pyrrolidin-1-ylmethyl)pyridin-3-yl)-1H-pyrazolo[3,4-b]pyridine] | 0.97 µM | – | – | –
2.95 µM | 1.64 µM | CN(C)CCNc1cc(F)cc(-c2cccc3[nH]c(-c4n[nH]c5ncc(-c6cncc(OC7CCCCC7)c6)cc45)cc23)c1 [Compound 785, N^1-(3-(2-(5-(5-(Cyclohexyloxy)pyridin-3-yl)-1H-pyrazolo[3,4-b]pyridin-3-yl)-1H-indol-4-yl)-5-fluorophenyl)-N^2,N^2-dimethylethane-1,2-diamine] | 1.24 µM | – | – | –
0.211 µM | > 10 µM | CCCC(=O)Nc1cncc(-c2cnc3[nH]nc(-c4cc5c(-c6cccc(F)c6)cccc5[nH]4)c3c2)c1 [Compound 14, N-(5-(3-(4-(3-Fluorophenyl)-1H-indol-2-yl)-1H-pyrazolo[3,4-b]pyridin-5-yl)pyridin-3-yl)butyramide] | > 10 µM | – | 9.9% | –
0.3 µM | > 10 µM | Cc1ccncc1-c1cnc2[nH]nc(-c3cc4c(-c5cc(F)cc(CNS(C)(=O)=O)c5)cccc4[nH]3)c2c1 [Compound 455, N-(3-Fluoro-5-(2-(5-(4-methylpyridin-3-yl)-1H-pyrazolo[3,4-b]pyridin-3-yl)-1H-indol-4-yl)benzyl)methanesulfonamide] | > 10 µM | 43.9% | 8.7% | –
3.39 µM | > 10 µM | CCCCC(=O)Nc1cncc(-c2cnc3[nH]nc(-c4cc5c(N6CCCCC6)cccc5[nH]4)c3c2)c1 [Compound 163, N-(5-(3-(4-(Piperidin-1-yl)-1H-indol-2-yl)-1H-pyrazolo[3,4-b]pyridin-5-yl)pyridin-3-yl)pentanamide] | 8.11 µM | – | 38% | –
2.78 µM | 3.86 µM | CN(C)CCNc1cc(F)cc(-c2cccc3[nH]c(-c4n[nH]c5ncc(-c6cncc(CN7CCCCC7)c6)cc45)cc23)c1 [Compound 437, N^1-(3-Fluoro-5-(2-(5-(5-(piperidin-1-ylmethyl)pyridin-3-yl)-1H-pyrazolo[3,4-b]pyridin-3-yl)-1H-indol-4-yl)phenyl)-N^2,N^2-dimethylethane-1,2-diamine] | 5.44 µM | – | – | –
> 10 µM | > 10 µM | CC(C)(C)C(=O)Nc1cncc(-c2cnc3[nH]nc(-c4cc5c(-c6ccoc6)cccc5[nH]4)c3c2)c1 [Compound 290, N-(5-(3-(4-(Furan-3-yl)-1H-indol-2-yl)-1H-pyrazolo[3,4-b]pyridin-5-yl)pyridin-3-yl)pivalamide] | > 10 µM | 43.3% | 35.1% | 53%
7.01 µM | 4.91 µM | CCNCc1cncc(-c2cnc3[nH]nc(-c4cc5c(-c6ccccn6)cccc5[nH]4)c3c2)c1 [Compound 124, N-((5-(3-(4-(Pyridin-2-yl)-1H-indol-2-yl)-1H-pyrazolo[3,4-b]pyridin-5-yl)pyridin-3-yl)methyl)ethanamine] | 1.8 µM | – | – | –
4.75 µM | 3.52 µM | CN1CCN(c2cccc3[nH]c(-c4n[nH]c5ncc(-c6cncc(CN7CCCCC7)c6)cc45)cc23)CC1 [Compound 215, 3-(4-(4-Methylpiperazin-1-yl)-1H-indol-2-yl)-5-(5-(piperidin-1-ylmethyl)pyridin-3-yl)-1H-pyrazolo[3,4-b]pyridine] | 1.76 µM | – | – | –
4.47 µM | 4.84 µM | CC(C)CC(=O)Nc1cncc(-c2cnc3[nH]nc(-c4cc5c(N6CCN(C)CC6)cccc5[nH]4)c3c2)c1 [Compound 202, 3-Methyl-N-(5-(3-(4-(4-methylpiperazin-1-yl)-1H-indol-2-yl)-1H-pyrazolo[3,4-b]pyridin-5-yl)pyridin-3-yl)butanamide] | 2.31 µM | – | – | –
3.88 µM | > 10 µM | CS(=O)(=O)NCc1cc(F)cc(-c2cccc3[nH]c(-c4n[nH]c5ncc(-c6ccccn6)cc45)cc23)c1 [Compound 478, N-(3-Fluoro-5-(2-(5-(pyridin-2-yl)-1H-pyrazolo[3,4-b]pyridin-3-yl)-1H-indol-4-yl)benzyl)methanesulfonamide] | 2.42 µM | – | 22.6% | –
> 10 µM | > 10 µM | c1ccc(CNCc2cncc(-c3cnc4[nH]nc(-c5cc6ccccc6[nH]5)c4c3)c2)cc1 [Compound 250, 1-(5-(3-(1H-Indol-2-yl)-1H-pyrazolo[3,4-b]pyridin-5-yl)pyridin-3-yl)-N-benzylmethanamine] | 2.95 µM | – | 12.2% | 50.9%
0.672 µM | 2.59 µM | CN(C)c1cncc(-c2cnc3[nH]nc(-c4cc5c(-c6cccc(F)c6)cccc5[nH]4)c3c2)c1 [Compound 5, 5-(3-(4-(3-Fluorophenyl)-1H-indol-2-yl)-1H-pyrazolo[3,4-b]pyridin-5-yl)-N,N-dimethylpyridin-3-amine] | 0.95 µM | – | – | –
4.64 µM | 2.83 µM | CCNCc1cncc(-c2cnc3[nH]nc(-c4cc5c(N6CCCCC6)cccc5[nH]4)c3c2)c1 [Compound 150, N-((5-(3-(4-(Piperidin-1-yl)-1H-indol-2-yl)-1H-pyrazolo[3,4-b]pyridin-5-yl)pyridin-3-yl)methyl)ethanamine] | 2.74 µM | – | – | –
1.04 µM | 0.828 µM | CN1CCN(c2cccc3[nH]c(-c4n[nH]c5ncc(-c6cncc(NC(=O)C7CCCC7)c6)cc45)cc23)CC1 [Compound 222, N-(5-(3-(4-(4-Methylpiperazin-1-yl)-1H-indol-2-yl)-1H-pyrazolo[3,4-b]pyridin-5-yl)pyridin-3-yl)cyclopentanecarboxamide] | 0.79 µM | – | – | –
0.489 µM | 1.07 µM | CN(C)Cc1cncc(-c2cnc3[nH]nc(-c4cc5c(-c6cc(F)cc(CNS(C)(=O)=O)c6)cccc5[nH]4)c3c2)c1 [Compound 463, N-(3-(2-(5-(5-((Dimethylamino)methyl)pyridin-3-yl)-1H-pyrazolo[3,4-b]pyridin-3-yl)-1H-indol-4-yl)-5-fluorobenzyl)methane sulfonamide] | 2.03 µM | – | – | –
0.174 µM | 0.726 µM | Nc1cncc(-c2cnc3[nH]nc(-c4cc5c(-c6ccccn6)cccc5[nH]4)c3c2)c1 [Compound 121, 5-(3-(4-(Pyridin-2-yl)-1H-indol-2-yl)-1H-pyrazolo[3,4-b]pyridin-5-yl) pyridin-3-amine] | 0.241 µM | – | – | –

— patent publication US20180214428A1, “3-(1H-INDOL-2-YL)-1H-PYRAZOLO[3,4-B]PYRIDINES AND THERAPEUTIC USES THEREOF” (Samumed, LLC, priority 2015, published 2018)
